In paper PMC4999848 (Toxins, 2016):
Values joined by “and” are separate entries in the source; they are usually repeats but may differ in a detail not shown here. Equal values may be shown once.

Legend:
Caco-2 cells = test: Deacetylation of 3/15ADON by Caco-2 cells; type: in vitro ADME, human; details: for Disappearance of 3/15ADON, specific activity: Caco-2, 37 °C, substrate 100 μM; for % deacetylated: Caco-2, 6 h incubation, 100 μM
Procedure: (§1) A498, Caco-2, T84 and HepG2 cells were used as models of human renal, small intestinal, colonic and hepatic cells, respectively. Cells were routinely grown in culture media (Dulbecco’s Modified Eagle Medium (DMEM), DMEM:F12 mixture and Minimum Essential Media (MEM) for A498/Caco-2, T84 and HepG2 cells, respectively) supplemented with 10% fetal calf serum and 1% antibiotics (streptomycin–penicillin solution). Cells were grown in 25 cm^2 ventilated flask maintained at 37 °C in a 5% CO2 incubator. Cells were routinely passed using trypsin-EDTA solution. For deacetylation experiments, cells were seeded onto 6-well plates at an initial density of 200,000 cells/cm^2. HepG2 and A498 were used 3–4 days post-seeding when confluence was reached. Caco-2 and T84 cells were let to differentiate for 10–14 days post-seeding before being used. In all cases, cells were washed three times with sterile phosphate buffer saline PBS^++ (PBS containing 100 mg/L of calcium and magnesium salts) before deacetylation assay.
(§2) Stock solutions of DON, 3ADON and 15ADON at 2 mg/mL were prepared in absolute ethanol and stored at −20 °C. For deacetylation assay, 3- or 15ADON were incubated with cells, explants, bacteria or digestive enzymes after being diluted in PBS^++ at a final concentration of 100 μM. PBS^++ solution containing only ethanol (at 1.5% final concentration) or DON (at 100 μM) were used in parallel as negative and positive control, respectively. For cells and explants, deacetylation assay take place in 6-well plates, wells being filled with 2 mL of PBS^++ containing either ethanol, DON, 3- or 15ADON. For fecal bacteria and digestive enzyme assay, deacetylation assay was conducted in 2 mL Eppendorf tubes filled with 1.5 mL of PBS^++ containing either ethanol, DON, 3- or 15ADON. In vitro intestinal digestion by luminal enzymes was performed using porcine enzymes from Sigma-Aldrich and physiological conditions. Briefly, 3- or 15ADON were incubated with pepsin (at 1.6 mg/mL corresponding to 900 U/mL), trypsin (at 0.35 mg/mL corresponding to 6000 U/mL), pancreatic lipase (at 0.75 mg/mL corresponding to 18 U/mL) or pancreatin (at 1.23 mg/mL, lipase activity >10 U/mL, protease activity >100 U/mL, amylase activity >100 U/mL). Except for pepsin for which the digestion was conducted in HCl solution at 10 mM (pH 2.3), in vitro digestion was performed in PBS^++ (pH 7.4). Finally, deacetylation assay was also performed with commercial pooled S9 fractions from human liver, small intestine and kidneys as well as with pure recombinant human CES1 and CES2. […] In all cases, aliquots of the reaction solution were collected immediately (i.e., “time zero” sample) or after the indicated time period at 37 °C and analyzed by HPLC. […]

[1] = Deacetylation of 3/15ADON by liver S9 fraction; type: in vitro ADME, human
Procedure: (§3) Stock solutions of DON, 3ADON and 15ADON at 2 mg/mL were prepared in absolute ethanol and stored at −20 °C. For deacetylation assay, 3- or 15ADON were incubated with cells, explants, bacteria or digestive enzymes after being diluted in PBS^++ at a final concentration of 100 μM. PBS^++ solution containing only ethanol (at 1.5% final concentration) or DON (at 100 μM) were used in parallel as negative and positive control, respectively. For cells and explants, deacetylation assay take place in 6-well plates, wells being filled with 2 mL of PBS^++ containing either ethanol, DON, 3- or 15ADON. For fecal bacteria and digestive enzyme assay, deacetylation assay was conducted in 2 mL Eppendorf tubes filled with 1.5 mL of PBS^++ containing either ethanol, DON, 3- or 15ADON. In vitro intestinal digestion by luminal enzymes was performed using porcine enzymes from Sigma-Aldrich and physiological conditions. Briefly, 3- or 15ADON were incubated with pepsin (at 1.6 mg/mL corresponding to 900 U/mL), trypsin (at 0.35 mg/mL corresponding to 6000 U/mL), pancreatic lipase (at 0.75 mg/mL corresponding to 18 U/mL) or pancreatin (at 1.23 mg/mL, lipase activity >10 U/mL, protease activity >100 U/mL, amylase activity >100 U/mL). Except for pepsin for which the digestion was conducted in HCl solution at 10 mM (pH 2.3), in vitro digestion was performed in PBS^++ (pH 7.4). Finally, deacetylation assay was also performed with commercial pooled S9 fractions from human liver, small intestine and kidneys as well as with pure recombinant human CES1 and CES2. S9 fractions and CES1/2 were used at 0.1 mg/mL and 5 μg/mL (corresponding to CES activity >20 U/mL), respectively. In all cases, aliquots of the reaction solution were collected immediately (i.e., “time zero” sample) or after the indicated time period at 37 °C and analyzed by HPLC. […] In all cases, the experiments were conducted in triplicate (n = 3).
Deacetylation was monitoring both in term of disappearance of 3- or 15ADON and formation of DON. Measurement of DON, 3ADON and 15ADON concentrations was performed by reversed-phase HPLC using Waters Alliance System equipped with a Waters 2690 XE separation module and a Waters 996 photodiode array detector (Waters, Saint Quentin Falavier, France). The separation was achieved by mean of a LiChroCart column (125 mm × 4 mm) packed with 5 μm RP-18 Purospher gel (Merck, Darmstadt, Germany) and equipped with a LiChroCart precolumn (4 mm × 4 mm) packed with the same material (Merck). The precolumn and column were placed in room temperature. The elution procedure was carried out at 0.7 mL·min^−1 by a methanol–water solvent, using the following conditions: 40% methanol during 2 min followed by an increase in methanol to 50% at 2.1 min. The detection wavelength was set at 237 nm allowing the best signal/baseline ratio for simultaneous detection of the three DON forms in the incubation mediums. Under these conditions, DON and 3/15ADON were clearly separated, the retention time being around 2.7 min and 5.7 min, for DON and 3/15ADON, respectively (Figure 9). Quantification was based on calibration with the corresponding standard using Millinium Software (Waters, Saint Quentin Falavier, France).

[2] = Deacetylation of 3/15ADON by kidney S9 fraction; type: in vitro ADME, human; details: for Disappearance of 3/15ADON, specific activity: S9 kidney 0.1 mg/mL, 37 °C, substrate 100 μM; for Activity of renal S9 fraction on 3/15ADON: in words
Procedure: as §3
(§4) Deacetylation was monitoring both in term of disappearance of 3- or 15ADON and formation of DON. Measurement of DON, 3ADON and 15ADON concentrations was performed by reversed-phase HPLC using Waters Alliance System equipped with a Waters 2690 XE separation module and a Waters 996 photodiode array detector (Waters, Saint Quentin Falavier, France). The separation was achieved by mean of a LiChroCart column (125 mm × 4 mm) packed with 5 μm RP-18 Purospher gel (Merck, Darmstadt, Germany) and equipped with a LiChroCart precolumn (4 mm × 4 mm) packed with the same material (Merck). The precolumn and column were placed in room temperature. […] Quantification was based on calibration with the corresponding standard using Millinium Software (Waters, Saint Quentin Falavier, France).

pepsin = target: T1, pepsin (Sus scrofa, UniProt P00791); test: Deacetylation of 3/15ADON by pepsin; type: in vitro ADME, porcine; details: for Disappearance of 3/15ADON, specific activity: pepsin 1.6 mg/mL, HCl 10 mM pH 2.3, 37 °C, substrate 100 μM; for Contribution to total deacetylation activity: Pepsin: percentage of sum of specific activities (Figure 8)
T1 construct: purchased Sigma-Aldrich
Procedure: as §3, §4

T84 cells = test: Deacetylation of 3/15ADON by T84 cells; type: in vitro ADME, human; details: T84, 37 °C, substrate 100 μM
Procedure: as §1
Stock solutions of DON, 3ADON and 15ADON at 2 mg/mL were prepared in absolute ethanol and stored at −20 °C. […] In all cases, aliquots of the reaction solution were collected immediately (i.e., “time zero” sample) or after the indicated time period at 37 °C and analyzed by HPLC. […]

pancreatin = test: Deacetylation of 3/15ADON by pancreatin; type: in vitro ADME, porcine; details: pancreatin 1.23 mg/mL, PBS pH 7.4, 37 °C, substrate 100 μM
Procedure: Stock solutions of DON, 3ADON and 15ADON at 2 mg/mL were prepared in absolute ethanol and stored at −20 °C. For deacetylation assay, 3- or 15ADON were incubated with cells, explants, bacteria or digestive enzymes after being diluted in PBS^++ at a final concentration of 100 μM. PBS^++ solution containing only ethanol (at 1.5% final concentration) or DON (at 100 μM) were used in parallel as negative and positive control, respectively. For cells and explants, deacetylation assay take place in 6-well plates, wells being filled with 2 mL of PBS^++ containing either ethanol, DON, 3- or 15ADON. For fecal bacteria and digestive enzyme assay, deacetylation assay was conducted in 2 mL Eppendorf tubes filled with 1.5 mL of PBS^++ containing either ethanol, DON, 3- or 15ADON. In vitro intestinal digestion by luminal enzymes was performed using porcine enzymes from Sigma-Aldrich and physiological conditions. […] In all cases, aliquots of the reaction solution were collected immediately (i.e., “time zero” sample) or after the indicated time period at 37 °C and analyzed by HPLC. […]
Deacetylation was monitoring both in term of disappearance of 3- or 15ADON and formation of DON. […] Quantification was based on calibration with the corresponding standard using Millinium Software (Waters, Saint Quentin Falavier, France).

HepG2 cells = test: Deacetylation of 3/15ADON by HepG2 cells; type: in vitro ADME, human; details: for Disappearance of 3/15ADON, specific activity: HepG2, 37 °C, substrate 100 μM; for % deacetylated: HepG2, 6 h incubation, 100 μM
Procedure: as §1, §2

[3] = S9 Liver + Benzil 100 μM (Table 1)
[4] = S9 Liver, without benzil (Table 1)
[5] = S9 liver 0.1 mg/mL, 37 °C, substrate 100 μM (Table 3)

T1 sequence (P00791 60-385): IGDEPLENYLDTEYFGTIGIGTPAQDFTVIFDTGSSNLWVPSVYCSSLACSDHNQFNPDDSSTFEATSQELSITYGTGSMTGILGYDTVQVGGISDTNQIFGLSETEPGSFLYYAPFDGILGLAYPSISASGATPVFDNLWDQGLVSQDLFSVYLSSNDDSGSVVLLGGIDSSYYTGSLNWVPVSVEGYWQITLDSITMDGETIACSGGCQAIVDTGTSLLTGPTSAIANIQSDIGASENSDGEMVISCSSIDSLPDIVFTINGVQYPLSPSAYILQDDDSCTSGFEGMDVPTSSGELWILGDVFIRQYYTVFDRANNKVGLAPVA

| Compound | Disappearance of 3/15ADON, specific activity (Caco-2 cells) | % deacetylated (Caco-2 cells) | Disappearance of 3/15ADON, specific activity [1, 3] | Disappearance of 3/15ADON, specific activity [1, 4] | Disappearance of 3/15ADON, specific activity [1, 5] | Disappearance of 3/15ADON, specific activity [2] | Activity of renal S9 fraction on 3/15ADON [2] | Disappearance of 3/15ADON, specific activity (pepsin) | Contribution to total deacetylation activity: Pepsin (pepsin) | Disappearance of 3/15ADON, specific activity (T84 cells) | Disappearance of 3/15ADON, specific activity (pancreatin) | Disappearance of 3/15ADON, specific activity (HepG2 cells) | % deacetylated (HepG2 cells) |
| --- | --- | --- | --- | --- | --- | --- | --- | --- | --- | --- | --- | --- | --- |
| CC(=O)OC[C@]12[C@H](O)C(=O)C(C)=C[C@H]1O[C@@H]1[C@H](O)C[C@@]2(C)[C@]12CO2 [15ADON, 15-acetyldeoxynivalenol] | 152 pmol/min/mg and 152 ± 38 pmol/min/mg | 22.4% ± 5.5% | 125 ± 15 pmol/min/mg | 166 ± 3.5 pmol/min/mg | 208 pmol/min/mg and 208 ± 41 pmol/min/mg | 16 pmol/min/mg and 16 ± 5.8 pmol/min/mg | minor activity, if any | 40 ± 4.5 pmol/min/mg | 7% | 98 pmol/min/mg and 98 ± 29 pmol/min/mg | 26 ± 17 pmol/min/mg | 295 pmol/min/mg and 295 ± 41 pmol/min/mg | 16.8% ± 2.4% |
| CC(=O)O[C@@H]1C[C@]2(C)[C@@]3(CO)[C@H](O)C(=O)C(C)=C[C@H]3O[C@H]1[C@@]21CO1 [3ADON, 3-acetyldeoxynivalenol] | 479 pmol/min/mg and 479 ± 97 pmol/min/mg | 69.1% ± 14.3% | 1583 ± 39 pmol/min/mg | 1729 ± 27 pmol/min/mg | 1791 pmol/min/mg and 1791 ± 29 pmol/min/mg | 33 pmol/min/mg and 33 ± 8.3 pmol/min/mg | minor activity, if any | 34 ± 7.5 pmol/min/mg | 3% | 80 pmol/min/mg and 80 ± 24 pmol/min/mg | 24 ± 16 pmol/min/mg | 902 pmol/min/mg and 902 ± 78 pmol/min/mg | 52.1% ± 4.5% |
